Measured values from patent US4451483A, “2,3,4-Trinor-m-inter-phenylene-prostaglandin derivatives and compositions and method for inhibiting blood platelet aggregation” (Chinoin Gyogyszer es Vegyeszeti Termekek Gyara Rt., priority 1981, dated 1984).
Structures can show the parent of a compound that is named as a salt. Where two headings read alike, the source gives them in different places.

Tests used:
human PRP = assay: Inhibition of ADP-induced aggregation in human platelet rich plasma (PRP), method of Born; format: cell-based; details: aggregation provoked by 4 μmol/ml of ADP, read-out: IC50 on human PRP (concentration required to attain 50% inhibiting effect)
From the text: (§1) The main pharmacological effect of the new compounds according to the invention is that, like PGI2, they inhibit blood platelet aggregation and are able to dissolve the already existing agglomerates. The aggregation inhibiting effects of the new compounds were examined on human and guinea pig platelet rich plasma (PRP) according to the method of Born. Aggregation was provoked by adding 4 μmol/ml of ADP to the plasma, and then the prostacycline concentrations required to attain 50% or 100% inhibiting effect (IC50 or IC100) were determined.

guinea pig PRP = assay: Inhibition of ADP-induced aggregation in guinea pig platelet rich plasma (PRP), method of Born; format: cell-based; details: Cavia porcellus, aggregation provoked by 4 μmol/ml of ADP, read-out: IC100 on guinea pig PRP (concentration required to attain 100% inhibiting effect)
From the text: as §1

[1] = sodium salt: storage, free acid: physiological conditions, hydrolysis into 6-keto-PGF1α, cited from earlier work
[2] = Biological half-life in aqueous medium (period within which the biological activity drops to the half); format: physicochemical; details: aqueous medium at pH=7
Protocol: The biological half-life (i.e. the period within which the biological activity of the substance drops to the half) is 3 minutes for PGI2 an an aqueous medium at pH=7, and about 7 days for the new compounds according to the invention.

Row | SMILES | IC50 (human PRP) [ng/mL] | IC100 (guinea pig PRP) [µg/mL] | stability of prostacycline sodium salt / free acid ([1]; listed as sodium salt of prostacycline) | stability of prostacycline sodium salt / free acid ([1]; listed as free PGI2 acid) | half-life [2] [min]
1 | CCCCCC[C@H](O)/C=C/[C@@H]1[C@H]2C/C(=C/c3cccc(C(=O)O)c3)O[C@H]2C[C@H]1O [5(Z)-2,3,4-Trinor-1,5-inter-m-phenylene-20-methyl-PGI2 sodium salt] | 12.5 | 0.014 |  |  | 
2 | CCCCC[C@H](O)/C=C/[C@@H]1[C@H]2C/C(=C/CCCC(=O)O)O[C@H]2C[C@H]1O [PGI2 sodium salt] | 2 | 0.00175 | very stable, highly storable compound |  | 
3 | CCCCC[C@H](O)/C=C/[C@@H]1[C@H]2C/C(=C/CCCC(=O)O)O[C@H]2C[C@H]1O [PGI2] |  |  |  | rapidly hydrolyzes into 6-keto-PGF1α | 3
